“And” between values parts separate entries of the source, which are not always exact repeats. Identical values can stand only once.
Assays:
[1] = test system: proteome of NCI-H1568 cells; assay: Whole cell unbiased proteomics (TMT) in NCI-H1568 cells; format: cell-based, human; conditions: for Rel. Int.: TMT reporter intensity relative to DMSO 1; for Rel. Int. / Normalised: replicates 1-3; for average: average of normalised replicates; for log2: log2 fold change vs DMSO; for Normalised: normalised relative intensity
Method: Cells were seeded at 5 × 10^6 cells on a 100 mm plate 24 h before treatment. Cells were treated in triplicate by addition of test compounds at 100 nM. After 4 h, the cells were washed twice with 10 ml cold PBS and lysed in 500 µL of 100 mM TEAB with 5% (w/v) SDS. The lysate was pulse sonicated briefly and then centrifuged at 15,000 × g for 10 min. Samples were quantified using a micro-BCA protein assay kit (Thermo Fisher Scientific). 300 µg of each sample was reduced with DTT, alkalised with iodoacetamide and double-digested with trypsin using the modified S-TRAP mini (ProtiFi) protocol. Peptide quantification was done using Pierce™ Quantitative Fluorometric Peptide Assay and equal amount from each sample was labelled using TMTpro^TM 16plex Label Reagent Set (Thermo Fisher Scientific) as per the manufacturer’s instructions. The samples were then pooled and desalted using a 7 mm, 3 mL C18 SPE cartridge column (Empore, 3 M). The pooled and desalted sample was fractionated using high pH reverse-phase chromatography on an XBridge peptide BEH column (130 Å, 3.5 μm, 2.1 × 150 mm, Waters) on an Ultimate 3000 HPLC system (Thermo Scientific/Dionex). Buffers A (10 mM ammonium formate in water, pH 9) and B (10 mM ammonium formate in 90% acetonitrile, pH 9) were used over a linear gradient of 2% to 100% buffer B over 80 min at a flow rate of 200 μL/min. 80 fractions were collected using a WPS-3000 FC auto-sampler (Thermo Scientific) before concatenation into 20 fractions based on the UV signal of each fraction. All the fractions were dried in a Genevac EZ-2 concentrator and resuspended in 1% formic acid for MS analysis. The fractions were analysed sequentially on a Q Exactive HF Hybrid Quadrupole-Orbitrap Mass Spectrometer (Thermo Scientific) coupled to an Dionex Ultimate 3000 RS (Thermo Scientific). […] The column temperature was 50 °C. The mass spectrometer was operated in data dependent mode with a single MS survey scan from 335 to 1600 m/z followed by 15 sequential m/z dependent MS2 scans. The 15 most intense precursor ions were sequentially fragmented by higher energy collision dissociation (HCD). The MS1 isolation window was set to 0.7 m/z and the resolution set at 120,000. MS2 resolution was set at 60,000. The AGC targets for MS1 and MS2 were set at 3 × 10^6 ions and 1 × 10^5 ions, respectively. The normalised collision energy was set at 32%. The maximum ion injection times for MS1 and MS2 were set at 50 ms and 200 ms, respectively. The mass accuracy was checked before the initiation of sample analysis. The raw MS data files for all 20 fractions were merged and searched against the Uniprot-sprot-Human-Canonical database (FASTA file released in November 2019) by Maxquant software 2.0.3.0 for protein identification and TMT reporter ion quantitation. The Maxquant parameters were set as follows: enzyme used Trypsin/P; maximum number of missed cleavages equal to two; precursor mass tolerance equal to 10 p.p.m.; fragment mass tolerance equal to 20 p.p.m.; variable modifications: oxidation (M), dioxidation (MW), acetyl (N-term), deamidation (NQ), Gln -> pyro-Glu (Q N-term); fixed modifications: carbamidomethyl (C). Peptide and protein data was filtered by applying a 1% false discovery rate followed by exclusion of proteins with less than two unique peptides. Quantified proteins were filtered if the absolute fold-change difference between the three DMSO replicates was ≥1.5.

[2] = Body weight / tolerability in xenograft studies; format: in vivo, mouse
Method: To establish subcutaneous tumours, mice were injected with 5 × 10^6 NCI-H1568 in PBS with 5% FCS or with 1 × 10^7 A549 cells in PBS with 5% FCS. Tumour diameters were measured with a caliper three times a week. The volume of each tumour (in mm^3) was calculated according to the formula [tumour volume = length × diameter^2 × π/6]. To monitor side effects of treatment, mice were inspected daily for abnormalities and body weight was determined daily after the start of treatment. Animals were sacrificed when the tumours reached a size of 1500 mm^3. Mice were randomised into treatment groups when the average tumour size reached ~210–220 mm^3. Group sizes were calculated individually for each tumour model based on tumour growth during model establishment experiments. A power analysis was performed using a sample size calculator (https://www.stat.ubc.ca/~rollin/stats/ssize/n2.html). For both models used in the study, 10 mice per group were used for each experiment. All administrations were dosed with 10 ml/kg (s.c. and oral). Control mice were dosed subcutaneously with 10% HP-β-CD in 50% Ringer solution and orally with 15% HP-β-CD, that means the control mouse treatment was corresponding to the solvent of the compounds. Compound 6 was dosed subcutaneously either in a d1-4 q3d, d6-8 q2d, d11-13 q2d treatment (Treatment 1) or a q3 or 4d treatment (Treatment 2).

[3] = protein SIK1 (LOC102724428;SIK1)

Structure (SMILES) | -logP [1] | Rel. Int. ([1]; protein BRPF1 (P55201)) | average ([1]; protein BRPF1 (P55201)) | log2 ([1]; protein BRPF1 (P55201)) | Normalised ([1]; protein BRPF1 (P55201)) | Rel. Int. ([1]; protein ETS1 (P14921)) | average ([1]; protein ETS1 (P14921)) | log2 ([1]; protein ETS1 (P14921)) | Normalised ([1]; protein ETS1 (P14921)) | Rel. Int. ([1]; protein PBRM1 (Q86U86)) | average ([1]; protein PBRM1 (Q86U86)) | log2 ([1]; protein PBRM1 (Q86U86)) | Normalised ([1]; protein PBRM1 (Q86U86)) | Rel. Int. [1, 3] | average [1, 3] | log2 [1, 3] | Normalised [1, 3] | Rel. Int. ([1]; protein SMARCA2 (P51531)) | average ([1]; protein SMARCA2 (P51531)) | log2 ([1]; protein SMARCA2 (P51531)) | further results
Cc1ncsc1-c1ccc(C(CCC(C)CCN2CCC(c3ccc4c(c3)n(C3CCCC3)c3nc(=O)c5c(Br)cccc5n43)CC2)NC(=O)C2CC(O)CN2C(=O)C(NC(=O)C2(F)CC2)C(C)(C)C)cc1 (centres unmarked) [ACBI2] | 4.42 | 0.86 and 0.73 and 0.58 | 0.72 | -0.46 | 0.74 and 0.73 and 0.70 | 1.29 and 1.11 and 0.95 | 1.13 | 0.17 | 1.12 (2×) and 1.14 | 0.41 and 0.40 and 0.32 | 0.38 | -1.40 | 0.36 and 0.40 and 0.39 | 1.44 and 1.21 and 1.03 | 1.24 | 0.30 | 1.25 and 1.21 and 1.24 | 0.52 and 0.45 and 0.40 | 0.46 | -1.12 | Normalised ([1]; protein SMARCA2 (P51531)): 0.45 and 0.46 and 0.48; tolerability ([2]; A549 xenograft, 80 mg/kg p.o. once daily): well tolerated
Cc1ncsc1-c1ccc([C@H](CCCCCN2CCC(c3ccc4c(c3)n(C3CCCC3)c3nc(=O)c5c(Br)cccc5n43)CC2)NC(=O)[C@@H]2C[C@@H](O)CN2C(=O)[C@@H](NC(=O)C2(F)CC2)C(C)(C)C)cc1 [compound 11] |  |  |  |  |  |  |  |  |  |  |  |  |  |  |  |  |  |  |  |  | tolerability ([2]; NCI-H1568 xenograft efficacy study, body weight changes): well tolerated
Cc1ncsc1-c1ccc([C@H](CC[C@H](C)CCN2CCC(c3ccc4c(c3)n(C3CCCC3)c3nc(=O)c5c(Br)cccc5n43)CC2)NC(=O)[C@@H]2C[C@H](O)CN2C(=O)[C@@H](NC(=O)C2(F)CC2)C(C)(C)C)cc1 [compound 12] | 0.0276 | 0.90 and 0.91 (2×) | 0.99 | -0.0113 | 0.98 (2×) and 1.02 | 0.94 and 0.98 and 0.91 | 1.03 | 0.05 | 1.04 and 1.05 and 1.02 | 0.85 and 0.92 and 0.84 | 0.95 | -0.07 | 0.93 and 0.98 and 0.94 | 0.93 and 0.92 and 0.88 | 1.00 | -0.00277 | 1.02 and 0.98 and 0.99 | 0.90 and 0.92 and 0.88 | 0.99 | -0.0184 | Normalised ([1]; protein SMARCA2 (P51531)): 0.99 (2×) and 0.98
